Activity calls are given as the source filed them. The rule behind the calls is not given here.
Columns and labels:
Type in all cases: functional
[1] = tested on: Clostridium perfringens; assay: Antimicrobial activity against Clostridium perfringens LFM1 assessed as resistance breakpoint by DANMAP method
[2] = tested on: Clostridium perfringens; assay: Antimicrobial activity against Clostridium perfringens LFM1 assessed as resistance breakpoint by DIN-standardized microdilution method
[3] = tested on: Clostridium perfringens; assay: Antimicrobial activity against Clostridium perfringens LFM1 assessed as resistant breakpoint by EUCAST method

| Compound | Activity [1] | Activity [2] | Activity [3] | Activity ([3]; record 2) [mg/L] |
| --- | --- | --- | --- | --- |
| CS(=O)(=O)c1ccc([C@@H](O)[C@@H](CF)NC(=O)C(Cl)Cl)cc1 [FLORFENICOL] | inactive | – | – | – |
| CC[C@H]1OC(=O)[C@H](C)[C@@H](O[C@H]2C[C@@](C)(OC)[C@@H](O)[C@H](C)O2)[C@H](C)[C@@H](O[C@@H]2O[C@H](C)C[C@H](N(C)C)[C@H]2O)[C@](C)(O)C[C@@H](C)C(=O)[C@H](C)[C@@H](O)[C@]1(C)O | – | inactive | – | – |
| O=C(N[C@H](CO)[C@H](O)c1ccc([N+](=O)[O-])cc1)C(Cl)Cl | inactive | – | – | – |
| CCC[C@@H]1C[C@@H](C(=O)N[C@@H]([C@H]2O[C@H](SC)[C@H](O)[C@@H](O)[C@H]2O)[C@H](C)Cl)N(C)C1 | – | inactive | – | – |
| CC(=O)NC[C@H]1CN(c2ccc(N3CCOCC3)c(F)c2)C(=O)O1 [LINEZOLID] | >4 mg/L | >4 mg/L | inactive | >4 |

Reference: ChEMBL document CHEMBL1240402 (2010)
